Assay results from article PMC5524190 (Biochemistry, 2016).
Like-named read-outs stand apart in the source and are kept apart here.

Assays:
[1] = tested on: BaIMPDHΔL; assay type: biochemical, Bacillus anthracis
[2] = molecular target: BaIMPDHΔL; assay type: biochemical, Bacillus anthracis; remark: listed apart in the source

SMILES	lower limit of k4 (NADH rebinding) [1] [M⁻¹ s⁻¹]	Ki ([1]; read-out: Ki(Q), predicted) [µM]	Ki ([1]; read-out: Ki(Q,B), predicted) [µM]	Ki ([2]; read-out: Ki(Q), observed ± std.err.) [µM]	Ki ([2]; read-out: Ki(Q,B), observed ± std.err.) [µM]	k2 [1] [M⁻¹ s⁻¹]	k−2 [1] [s⁻¹]	k−7 [1] [s⁻¹]	lower limit of k−7 (substrate inhibition by NAD+) [1] [M⁻¹ s⁻¹]	Ki ([1]; read-out: Ki(B), predicted) [µM]	Km ([1]; read-out: Km(B), predicted) [µM]	Kd ([1]; read-out: dissociation equilibrium constant k−7/k7 (substrate inhibition by NAD+)) [µM]	Ki ([2]; read-out: Ki(B), observed ± std.err.) [µM]	Km ([2]; read-out: Km(B), observed ± std.err.) [µM]
NC(=O)C1=CN([C@@H]2O[C@H](COP(=O)(O)OP(=O)(O)OC[C@H]3O[C@@H](n4cnc5c(N)ncnc54)[C@H](O)[C@@H]3O)[C@@H](O)[C@H]2O)C=CC1 [NADH]	> 2e+06	301	87.2	620 ± 360	97 ± 9	–	–	–	–	–	–	–	–	–
NC(=O)c1ccc[n+]([C@@H]2O[C@H](COP(=O)([O-])OP(=O)(O)OC[C@H]3O[C@@H](n4cnc5c(N)ncnc54)[C@H](O)[C@@H]3O)[C@@H](O)[C@H]2O)c1 [NAD^+]	–	–	–	–	–	31800	10.9	566000	> 4000	6610	415	~5500	7400 ± 400	460 ± 20
